Laboratory results: article PMC5449569, “Basal late sodium current is a significant contributor to the duration of action potential of guinea pig ventricular myocytes” (Physiological Reports, 2017)

Target: T1, NaV1.5 channel (native basal late sodium current, INaL) (Cavia porcellus, UniProt H0V4Z8)
T1 construct: gene SCN5A; native channel in isolated guinea pig ventricular myocytes
Test: whole-cell patch clamp of late Na+ current, single concentration ([…])
Type: cell-based
Settings: read-out: % inhibition at 2 mmol/L

T1 sequence (H0V4Z8 1-2015): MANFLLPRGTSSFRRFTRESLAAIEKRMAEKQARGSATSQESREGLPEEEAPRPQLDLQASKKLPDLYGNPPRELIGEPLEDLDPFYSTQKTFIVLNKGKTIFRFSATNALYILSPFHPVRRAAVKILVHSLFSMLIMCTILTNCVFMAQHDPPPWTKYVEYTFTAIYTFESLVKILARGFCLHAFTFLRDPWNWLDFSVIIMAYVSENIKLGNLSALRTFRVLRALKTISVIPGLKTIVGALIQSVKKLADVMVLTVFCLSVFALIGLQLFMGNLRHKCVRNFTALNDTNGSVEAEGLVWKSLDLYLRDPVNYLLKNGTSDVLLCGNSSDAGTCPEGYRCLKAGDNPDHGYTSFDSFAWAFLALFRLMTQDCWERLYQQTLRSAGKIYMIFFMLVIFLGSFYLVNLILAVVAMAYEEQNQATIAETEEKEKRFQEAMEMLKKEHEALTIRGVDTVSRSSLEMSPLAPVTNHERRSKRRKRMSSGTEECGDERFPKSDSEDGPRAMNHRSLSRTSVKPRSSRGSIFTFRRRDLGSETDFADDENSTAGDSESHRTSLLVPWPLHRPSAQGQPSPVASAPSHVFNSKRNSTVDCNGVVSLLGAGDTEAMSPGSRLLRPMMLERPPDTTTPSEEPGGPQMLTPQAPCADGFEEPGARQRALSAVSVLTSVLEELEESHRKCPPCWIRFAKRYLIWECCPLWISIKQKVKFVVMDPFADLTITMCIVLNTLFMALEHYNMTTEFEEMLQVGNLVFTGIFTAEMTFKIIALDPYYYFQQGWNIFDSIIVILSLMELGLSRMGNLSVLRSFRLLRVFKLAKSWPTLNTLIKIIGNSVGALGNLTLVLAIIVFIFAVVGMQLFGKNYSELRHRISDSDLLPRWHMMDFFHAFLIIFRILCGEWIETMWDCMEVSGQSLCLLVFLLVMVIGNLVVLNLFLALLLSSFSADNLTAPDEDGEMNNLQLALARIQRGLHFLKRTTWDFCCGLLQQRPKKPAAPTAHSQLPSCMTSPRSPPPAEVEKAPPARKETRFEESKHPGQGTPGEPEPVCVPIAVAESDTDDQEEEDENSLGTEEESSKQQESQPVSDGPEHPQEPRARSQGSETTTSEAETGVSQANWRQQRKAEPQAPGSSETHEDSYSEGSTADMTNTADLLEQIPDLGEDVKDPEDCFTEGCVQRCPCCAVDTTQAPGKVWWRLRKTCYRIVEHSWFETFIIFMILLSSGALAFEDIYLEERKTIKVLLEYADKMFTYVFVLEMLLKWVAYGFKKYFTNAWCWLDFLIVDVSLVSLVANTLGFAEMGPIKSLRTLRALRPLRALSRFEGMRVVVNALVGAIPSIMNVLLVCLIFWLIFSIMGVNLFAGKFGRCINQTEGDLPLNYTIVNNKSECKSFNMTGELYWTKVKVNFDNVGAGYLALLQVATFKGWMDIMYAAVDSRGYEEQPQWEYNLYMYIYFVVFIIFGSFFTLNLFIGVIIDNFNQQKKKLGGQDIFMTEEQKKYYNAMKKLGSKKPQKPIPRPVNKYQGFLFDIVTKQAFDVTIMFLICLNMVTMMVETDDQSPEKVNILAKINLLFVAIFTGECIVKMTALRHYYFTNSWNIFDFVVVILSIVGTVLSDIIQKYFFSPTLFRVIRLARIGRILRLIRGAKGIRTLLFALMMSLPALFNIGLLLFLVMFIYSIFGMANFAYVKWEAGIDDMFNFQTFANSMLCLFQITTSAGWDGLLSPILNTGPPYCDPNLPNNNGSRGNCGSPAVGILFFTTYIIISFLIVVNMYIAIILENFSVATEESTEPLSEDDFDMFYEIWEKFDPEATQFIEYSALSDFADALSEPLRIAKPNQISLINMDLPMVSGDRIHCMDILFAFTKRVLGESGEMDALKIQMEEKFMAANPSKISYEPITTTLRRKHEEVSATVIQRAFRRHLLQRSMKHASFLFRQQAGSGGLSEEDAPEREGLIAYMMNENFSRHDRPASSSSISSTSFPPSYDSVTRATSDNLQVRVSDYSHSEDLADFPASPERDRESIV

## CS(=O)(=O)SCCN [MTSEA]
  inhibition at 2000 µM: 90 ± 5%
